{
  "source": "patent EP1066315B1",
  "about": "(University of Dundee, priority 1998, dated 2008)",
  "test_system": "EBV-transformed B cells / autologous TTCF-specific T cell clones",
  "experiment": "TTCF antigen presentation by EBV-transformed B cells, read out as proliferation of autologous T cell clones",
  "format": "cell-based, human",
  "experimental": "The invention will now be described by reference to the following Examples and Figures wherein • Figure 1: Processing of TTCF by a leupeptin-insensitive cysteine endopeptidase activity. (a) TTCF was digested in vitro in the presence of disrupted lysosomes (1-2 µg) in the presence or absence of iodoacetamide (1 mM), leupeptin, E64 or pepstatin (each at 0.1 mg/ml). Digestions were in 0.1 M NH4 acetate at pH 4.5 or Na2HPO4, pH 6.0 or 7.0. After 4 hours at 37°C, the reactions were separated by Tris-tricine SDS-PAGE and stained with Coomassie Blue. (b) Cleavage sites: TTCF digestion products were separated by SDS PAGE and electrophoretically transferred to nitrocellulose membrane. Individual fragments numbered 1-6 were subjected to 5 cycles of Edman degradation. N-terminal sequence obtained is shown in bold following upstream residues from TTCF (tetanus toxin numbering). The N-terminal sequence of His-tagged TTCF was obtained for fragments 1 and 3. (c) Residues Asn 1184 and Glu 1184 in TTCF were mutated to alanine (see Methods) and digestions performed as before. The mutation abolishes cleavage at the mutated site but not at the first site (doublet at 47 kD). In this experiment cleavage of the third site was minimal. • Figure 2: TTCF is processed by an asparaginyl endopeptidase. (a) Chromatography of the TTCF processing activity on Mono-S resin. Fractions eluted by NaCl gradient were incubated with the substrates Z-Ala-Ala-Asn-NHMec or Z-Phe-Arg-NHMec in the presence or absence of E64 (trans-epoxysuccinyl-L-leucylamido-(4-guanidino)butane). […] (c) Each fraction was analysed by SDS-PAGE and Western blotting. […] Release of 7-amino-4-methyl coumarin was measured after 10, 20 or 30 minutes. […] At different times the cells were washed, fixed in 0.05 % glutaraldehyde and antigen presentation measured using proliferation of different autologous TTCF-specific T cell clones. c, AEP pre-processing of TTCF speeds antigen presentation. […] Presentation was measured after 60 minutes of antigen pulsing using EBV B cells. […]",
  "note": "Entries after “also recorded” stand apart in the source; their conditions may differ. Residues, ends and D or L forms follow the SMILES beside them. *: point of attachment. Fmoc = O=C(OCC1c2ccccc2-c2ccccc21)*",
  "data": [
    {"smiles": "C[C@H](NC(=O)OCC1c2ccccc2-c2ccccc21)C(=O)N[C@@H](CCC(=O)O)C(=O)N[C@@H](CC(N)=O)C(=O)N[C@@H](CCCCN)C(N)=O", "note": "[AENK, Ala-Glu-Asn-Lys-NH] (Fmoc-AENK-NH2)", "values": [
      {"measurement": "presentation of AEP-pre-processed antigen", "setting": "EBV B cells, TTCF pre-processed with AEP, 60 minutes of antigen pulsing, Fig 9d", "result": "no longer inhibited; also recorded: did not block"},
      {"measurement": "antigen presentation by EBV-B cells", "setting": "EBV-B cells from donor, 2 mg/ml peptide, Fig 9b", "result": "blocked antigen presentation by EBV-B cells very effectively"}
    ]}
  ]
}
